Measurements reported in PMC6656724 (Communications Biology, 2019).

Legend:
[1] = Brain tissue binding (equilibrium dialysis); format: in vitro ADME; details: mouse, brain homogenate
Procedure: tissues were diluted (brain: 1:10, w/v; liver: 1:10,000, w/v) with Krebs buffer containing 100 mM Tris-HCl (pH 8.1), 10 mM KCl and 1 mM EDTA, and sonicated.
80 µl of the resulting tissue homogenates were incubated for 40 min at 37 °C with 20 µl aliquots of aqueous solutions of the test compounds (or water in controls), 10 µM kynurenine, 1 mM NADPH, 3 mM glucose-6-phosphate and 1U/ml glucose-6-phosphate dehydrogenase in a total volume of 200 µl. The reaction was terminated by the addition of 50 µl of 6% perchloric acid, the denatured proteins were removed by centrifugation, and newly synthesized 3-HK was quantified by HPLC with electrochemical detection (Coulochem 5100A; ESA, Chelmsford, MA) at an oxidation potential of […].
The methodology employed was a modification of that reported previously20. […]
for 1 minute and then centrifuged at 3000 rpm in 96-well blocks for 15 minutes (Allegra X12-R, Beckman Coulter, USA). All samples were analysed by means of UPLC/MS/MS on a Xevo TQs micro Mass Spectrometer (Waters Corporation, USA).
The unbound fraction was determined as the ratio of the peak area in artificial CSF to that in brain, with correction for dilution factor according to equation (5)21, […]
((1/f ! ,!""!#$%& ) − 1) + 1/D where D = dilution factor in brain homogenate and fu,apparent is the measured free fraction of diluted brain homogenate. […]

PfKMO = target: T1, PfKMO (Pseudomonas fluorescens, UniProt Q84HF5, C252S/C461S); test: biochemical
T1 construct: made in house; host or cells: E. coli BL21 (DE3)
Procedure: saturating concentrations of the L-KYN and NADPH substrates. Data are plotted […]
consumption of NADPH at 340 nm upon addition of enzyme via a Cary 50 UV-Vis spectrophotometer (Agilent Technologies). Rates were determined from linear regression fits to the initial linear portion of the curves. All measurements were performed in triplicate. The IC50 values for inhibitors were obtained by plotting the percentage inhibition versus the inhibitor concentration and fitting to the Morrison equation16 (equation 1) using Origin 9.0 Software (OriginLab, Northampton, MA).
E + I + K!"" − E + I + K!"" ! − 4[E][I] where v0 is the enzyme activity without inhibitor, vi is the enzyme activity with ligand concentration [I], [E] is the enzyme concentration, [I] is the inhibitor concentration, K!"" is the apparent inhibition constant and IC = K!"" + [!] . If K!"" ≫ [!], IC ≈ […]
where Ki is the inhibition constant, [S] is the substrate concentration used in the assay and Km is the Michaelis-Menten constant17. […]
between Ki and Ki apparent values, as the conditions for measuring IC50 are different, Ki values can be used to compare with other reported KMO inhibitors.
Steady-state kinetic parameters for PfKMO were calculated by measuring initial rates […]
the observed rate of turnover (v) versus the varied substrate concentration were fitted to equation 2 using Origin 9.0 Software (OriginLab, Northampton, MA).
A B + K!! B + K!! A + K!!K!! where v is the initial rate of activity, Vmax is the maximum velocitie of the reaction, [A] and [B] are the substrate concentration, K!! and K!! are the Michaelis-Menten constant for different substrate and K!! is the inhibition (binding) constant of substrate A to the free enzyme while forming transitory complexes.18
Product inhibition studies were carried out by measuring reaction rates at varying […]
one substrate and varying concentrations of the other substrate. Inhibition studies with target compounds were carried out by measuring reaction rates at varying inhibitor concentrations at saturating concentrations of one substrate and varying concentrations of the other substrate. […]
were used to distinguish between different types of inhibition. The data were fitted to a straight line defined by the Lineweaver-Burke equation (equation 4), with the y intercept providing 1/Vmax and the x intercept giving -1/Km. […]

T1 sequence (Q84HF5 whole entry C252S/C461S): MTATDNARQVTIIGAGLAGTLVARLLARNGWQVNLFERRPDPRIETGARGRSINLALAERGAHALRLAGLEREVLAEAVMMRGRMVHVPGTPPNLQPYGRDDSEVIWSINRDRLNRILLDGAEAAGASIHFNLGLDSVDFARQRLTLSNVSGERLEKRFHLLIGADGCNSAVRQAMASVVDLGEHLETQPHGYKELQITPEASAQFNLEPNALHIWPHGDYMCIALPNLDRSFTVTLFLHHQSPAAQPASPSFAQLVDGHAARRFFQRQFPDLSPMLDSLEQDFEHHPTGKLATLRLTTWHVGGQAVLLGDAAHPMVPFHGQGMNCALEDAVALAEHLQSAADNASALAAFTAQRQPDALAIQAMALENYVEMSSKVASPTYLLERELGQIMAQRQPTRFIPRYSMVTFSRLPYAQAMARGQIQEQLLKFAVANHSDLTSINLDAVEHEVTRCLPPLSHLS

Question: With CCOC(=O)CN1C(=O)COc2cc(C)c(Cl)c(C)c21 [1b] as the molecule, how does the fraction unbound at 5 h, 10 µg/g [1] read?
Answer: 0.016

Question: With Cc1cc2c(c(C)c1Cl)N(Cc1nn[nH]n1)C(=O)CO2 [1h, 6-chloro-5,7-dimethyl-4-(2H-tetrazol-5-ylmethyl)-1,4-benzoxazin-3-one] as the molecule, how does the Ki (PfKMO) read?
Answer: 1060 ± 40 nM

Question: With Cc1cc2c(c(C)c1Cl)N(CC(=O)O)C(=O)CO2 [compound 1, (6-chloro-5,7-dimethyl-3-oxo-2,3-dihydro-4H-1,4-benzoxazin-4-yl) acetic acid] as the molecule, how does the fraction unbound at 5 h, 10 µg/g [1] read?
Answer: 0.3

Question: And the “Mechanism of inhibition with respect to L-KYN” value (PfKMO; PfKMO)?
Answer: competitive inhibitor

Question: And the “Mechanism of inhibition with respect to NADPH” value (PfKMO; PfKMO)?
Answer: mixed type inhibitors
